According to ChEMBL document CHEMBL1201862, “PubChem BioAssay data set” (2004):
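Step 1: Grow cells in 96-well plates. Step 2: Expose to compound for 48 hours at 5 concentrations. Step 3: Interpolate endpoints linearly; if unreached, use highest concentration. The concentration for 50% growth inhibition is given as GI50.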 The source made the active and inactive calls. Cut-off read from the data, not from the text of the source: active = GI50 up to about 1.1 µM and inactive = higher.

Experiments:
Test in all cases: growth of human tumour cells (NCI), 48 h
RXF 393 = system: RXF 393
TK-10 = system: TK-10
KM12 = system: KM12
HOP-62 = system: HOP-62
SK-MEL-5 = system: SK-MEL-5
MDA-N = system: MDA-N
NCI-H226 = system: NCI-H226
OVCAR-4 = system: OVCAR-4
HT-29 = system: HT-29
SF-295 = system: SF-295
UACC-62 = system: UACC-62
OVCAR-5 = system: OVCAR-5
DU-145 = system: DU-145
CCRF-CEM = system: CCRF-CEM
SW-620 = system: SW-620
SR = system: SR
U-251 = system: U-251
CAKI-1 = system: CAKI-1
SF-539 = system: SF-539
MDA-MB-231 = system: MDA-MB-231

Compound | GI50 (RXF 393) | GI50 (TK-10) | GI50 (KM12) | GI50 (HOP-62) | GI50 (SK-MEL-5) | GI50 (MDA-N) | GI50 (NCI-H226) | GI50 (OVCAR-4) | GI50 (HT-29) | GI50 (SF-295) | GI50 (UACC-62) | GI50 (OVCAR-5) | GI50 (DU-145) | GI50 (CCRF-CEM) | GI50 (SW-620) | GI50 (SR) | GI50 (U-251) | GI50 (CAKI-1) | GI50 (SF-539) | GI50 (MDA-MB-231)
CC(=O)C1C(=O)C(C(C)=O)C2C3C=CC(C3)C12 (stereo unspecified) | > 100 µM (inactive) | > 100 µM (inactive) | > 100 µM (inactive) | > 100 µM (inactive) | > 100 µM (inactive) | > 100 µM (inactive) | > 100 µM (inactive) | > 100 µM (inactive) | > 100 µM (inactive) | > 100 µM (inactive) | > 100 µM (inactive) | > 100 µM (inactive) | > 100 µM (inactive) | > 100 µM (inactive) | > 100 µM (inactive) | > 100 µM (inactive) | > 100 µM (inactive) | > 100 µM (inactive) | > 100 µM (inactive) | > 100 µM (inactive)
COC(=O)c1c(C(=O)OC)c2ccccn2c1-c1cc(C)cc2c1C(=O)C=CC2=O | 14.1 µM (inactive) | 14.1 µM (inactive) | > 10 µM (inactive) | 15.7 µM (inactive) | 12.4 µM (inactive) | 10.5 µM (inactive) | 13.8 µM (inactive) | 14.2 µM (inactive) | 11.2 µM (inactive) | 12.2 µM (inactive) | 11.7 µM (inactive) | 12.1 µM (inactive) | 14 µM (inactive) | 0.796 µM (active) | 2.89 µM (inactive) | 3.93 µM (inactive) | – | 5.08 µM (inactive) | 11 µM (inactive) | 10.4 µM (inactive)
Cc1ccccc1-n1c(=O)nc2n(-c3ccc(C(C)(C)C)cc3)c3ccccc3cc-2c1=O | 21.8 µM (inactive) | 37.7 µM (inactive) | 15.3 µM (inactive) | 20.2 µM (inactive) | 15.1 µM (inactive) | 22.6 µM (inactive) | 18.8 µM (inactive) | 26.5 µM (inactive) | 16.5 µM (inactive) | 20.4 µM (inactive) | 19.2 µM (inactive) | 25.9 µM (inactive) | 21.1 µM (inactive) | 19.8 µM (inactive) | 15.9 µM (inactive) | 30.1 µM (inactive) | 15 µM (inactive) | 23.9 µM (inactive) | 17.8 µM (inactive) | 19 µM (inactive)
O=C(CN1CCOCC1)CC(O)(C(F)(F)F)C(F)(F)F | 20.1 µM (inactive) | > 100 µM (inactive) | 77.8 µM (inactive) | – | 47.6 µM (inactive) | > 100 µM (inactive) | > 100 µM (inactive) | > 100 µM (inactive) | > 10 µM (inactive) | 67 µM (inactive) | 44.6 µM (inactive) | > 100 µM (inactive) | > 100 µM (inactive) | 56.4 µM (inactive) | 48.9 µM (inactive) | 79.4 µM (inactive) | 51.4 µM (inactive) | 78.3 µM (inactive) | > 100 µM (inactive) | > 100 µM (inactive)
N#Cc1c(N)nc2c(/N=N\c3ccccc3)c(N)nn2c1Nc1ccccc1 | 13.1 µM (inactive) | 22.3 µM (inactive) | 4.75 µM (inactive) | 20.3 µM (inactive) | 14.9 µM (inactive) | 15.6 µM (inactive) | 25.7 µM (inactive) | 14.9 µM (inactive) | 12.4 µM (inactive) | 16.8 µM (inactive) | – | 26.7 µM (inactive) | 18.2 µM (inactive) | 4.37 µM (inactive) | 10.8 µM (inactive) | 2.39 µM (inactive) | 10.2 µM (inactive) | 8.93 µM (inactive) | 21.6 µM (inactive) | 16 µM (inactive)
NC(=O)C(=O)C(c1ccccc1)S(=O)(=O)Cc1ccccc1 (stereo unspecified) | > 100 µM (inactive) | > 100 µM (inactive) | > 100 µM (inactive) | > 100 µM (inactive) | > 100 µM (inactive) | > 100 µM (inactive) | > 100 µM (inactive) | > 100 µM (inactive) | > 100 µM (inactive) | > 100 µM (inactive) | > 100 µM (inactive) | > 100 µM (inactive) | > 100 µM (inactive) | > 100 µM (inactive) | > 100 µM (inactive) | > 100 µM (inactive) | > 100 µM (inactive) | > 100 µM (inactive) | > 100 µM (inactive) | > 100 µM (inactive)
CC(=O)/C(=C\NC(N)=S)C(=O)Nc1ccccc1C | > 100 µM (inactive) | > 100 µM (inactive) | > 100 µM (inactive) | > 100 µM (inactive) | > 100 µM (inactive) | > 100 µM (inactive) | > 100 µM (inactive) | > 100 µM (inactive) | > 100 µM (inactive) | > 100 µM (inactive) | > 100 µM (inactive) | > 100 µM (inactive) | > 100 µM (inactive) | > 100 µM (inactive) | > 100 µM (inactive) | > 100 µM (inactive) | > 100 µM (inactive) | > 100 µM (inactive) | > 100 µM (inactive) | > 100 µM (inactive)
COc1cc(C2C3=C(COC3=O)Oc3cc4c(cc32)OCO4)ccc1OC(C)=O (stereo unspecified) | 0.67 µM (active) | > 100 µM (inactive) | 0.255 µM (active) | 1.73 µM (inactive) | 0.106 µM (active) | 0.0467 µM (active) | 5.14 µM (inactive) | 1.41 µM (inactive) | 0.346 µM (active) | 0.127 µM (active) | 0.54 µM (active) | 5.22 µM (inactive) | 0.492 µM (active) | 0.35 µM (active) | 0.284 µM (active) | 0.179 µM (active) | 0.492 µM (active) | 0.303 µM (active) | 0.25 µM (active) | 0.436 µM (active)
COc1cc2ccc1OCc1cccc(n1)COc1ccc(cc1OC)/C=N\c1ccc(cc1)-c1ccc(cc1)/N=C\2 | 71.6 µM (inactive) | > 100 µM (inactive) | > 100 µM (inactive) | 78 µM (inactive) | > 100 µM (inactive) | > 100 µM (inactive) | > 100 µM (inactive) | > 100 µM (inactive) | > 100 µM (inactive) | > 100 µM (inactive) | > 100 µM (inactive) | – | > 100 µM (inactive) | > 100 µM (inactive) | > 100 µM (inactive) | > 100 µM (inactive) | > 100 µM (inactive) | > 100 µM (inactive) | > 100 µM (inactive) | > 100 µM (inactive)
C=C1C(=O)O[C@H]2[C@H](OC(C)=O)[C@@H](C)CCC/C(C)=C/CC[C@@]3(C)O[C@@H]3C[C@@H]12 | 1.87 µM (inactive) | 2.13 µM (inactive) | 6.44 µM (inactive) | 15.6 µM (inactive) | 4.19 µM (inactive) | 2.94 µM (inactive) | 1.5 µM (inactive) | 3.55 µM (inactive) | 2.94 µM (inactive) | 13.2 µM (inactive) | 4.11 µM (inactive) | 8.26 µM (inactive) | 2.32 µM (inactive) | 0.661 µM (active) | 2.58 µM (inactive) | 1.86 µM (inactive) | 6.34 µM (inactive) | 2.19 µM (inactive) | 1.95 µM (inactive) | 4.08 µM (inactive)
COc1ccc(/N=N/C(=O)NC(CC(C)C)C(=O)NCC(=O)O)cc1 (stereo unspecified) | > 100 µM (inactive) | 25.3 µM (inactive) | 3.76 µM (inactive) | 41.6 µM (inactive) | 3.79 µM (inactive) | 26.6 µM (inactive) | > 41 µM (inactive) | > 51.5 µM (inactive) | 14.8 µM (inactive) | 5.53 µM (inactive) | 1.61 µM (inactive) | 13.5 µM (inactive) | 12.2 µM (inactive) | 9.31 µM (inactive) | 12.8 µM (inactive) | 19.5 µM (inactive) | > 100 µM (inactive) | > 100 µM (inactive) | 4.18 µM (inactive) | > 58.2 µM (inactive)
COc1cc(C(=O)Oc2c(C#N)sc3c2c(=O)n(-c2ccccc2)c(=S)n3-c2ccccc2)cc(OC)c1OC | 8.99 µM (inactive) | 27.7 µM (inactive) | 18.9 µM (inactive) | 19.5 µM (inactive) | 17.3 µM (inactive) | 20.2 µM (inactive) | 4.73 µM (inactive) | 26.4 µM (inactive) | 3.4 µM (inactive) | 4.14 µM (inactive) | 24.1 µM (inactive) | 17.6 µM (inactive) | 19.8 µM (inactive) | 4.72 µM (inactive) | 24.2 µM (inactive) | > 100 µM (inactive) | 12.5 µM (inactive) | 21.2 µM (inactive) | 4.71 µM (inactive) | 20.8 µM (inactive)
C1C2CC3CC1CC(Nc1nc(NC45CC6CC(CC(C6)C4)C5)nc(NC45CC6CC(CC(C6)C4)C5)n1)(C2)C3 | 39 µM (inactive) | > 60 µM (inactive) | 22.1 µM (inactive) | > 36.5 µM (inactive) | 14.3 µM (inactive) | 74.3 µM (inactive) | > 100 µM (inactive) | > 83 µM (inactive) | > 100 µM (inactive) | > 56.1 µM (inactive) | > 44.7 µM (inactive) | > 92.3 µM (inactive) | 42 µM (inactive) | > 92.9 µM (inactive) | 79.4 µM (inactive) | 51.2 µM (inactive) | 43.8 µM (inactive) | > 100 µM (inactive) | > 100 µM (inactive) | > 100 µM (inactive)
CC1=NN(C(=O)c2ccccc2O)C(=O)/C1=C/c1ccco1 | 0.171 µM (active) | 33.9 µM (inactive) | 7.01 µM (inactive) | 0.497 µM (active) | 1.36 µM (inactive) | 0.53 µM (active) | 3.46 µM (inactive) | 3.46 µM (inactive) | 12.4 µM (inactive) | 3.58 µM (inactive) | 0.436 µM (active) | 9.18 µM (inactive) | 4.74 µM (inactive) | 1.61 µM (inactive) | 3.3 µM (inactive) | 2.94 µM (inactive) | 6.89 µM (inactive) | 1.61 µM (inactive) | 0.818 µM (active) | 15.1 µM (inactive)
